Reference: ChEMBL document CHEMBL4706755, “Novel Small Molecule RNA m6A Demethylase AlkBH5 Inhibitors for Treating Cancer” (ACS Med Chem Lett, 2021)

Target: RNA demethylase ALKBH5 (Homo sapiens, UniProt Q6P6C2)
Assay: Inhibition of ALKBH5 demethylase activity (unknown origin) assessed as increase in methylated 6A-RNA level incubated for 2 hrs by colorimetric analysis

RNA demethylase ALKBH5, sequence (Q6P6C2 whole entry): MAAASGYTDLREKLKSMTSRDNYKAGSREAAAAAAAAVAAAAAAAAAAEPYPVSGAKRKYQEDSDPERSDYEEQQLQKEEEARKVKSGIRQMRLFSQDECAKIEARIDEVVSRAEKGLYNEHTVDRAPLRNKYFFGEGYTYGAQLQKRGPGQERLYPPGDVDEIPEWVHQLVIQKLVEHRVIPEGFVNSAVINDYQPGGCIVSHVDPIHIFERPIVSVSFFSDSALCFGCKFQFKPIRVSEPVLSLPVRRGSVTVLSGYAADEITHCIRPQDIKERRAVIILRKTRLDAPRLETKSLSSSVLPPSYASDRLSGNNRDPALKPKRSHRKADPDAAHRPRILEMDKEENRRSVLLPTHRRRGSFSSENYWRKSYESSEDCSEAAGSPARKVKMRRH

IC50: 840 nM
SMILES: O=C(O)CSC(O)C(=O)c1ccccc1 (stereo unspecified)
